Laboratory results as given in the NIST ThermoML archive (doi:10.1016/j.jct.2012.06.030).
± gives the expanded uncertainty stated by the source.

Assay: molar heat capacity at constant pressure; xn = mol fraction of the nth substance listed
Conditions: 101 kPa, Liquid, Small sample (50 mg) DSC

SMILES: CCCCCC[n+]1ccc2ccccc2c1.N#C[S-] [2-hexylisoquinolinium thiocyanate] + O
- molar heat capacity at constant pressure (288.15 K, x1 = 0.2887): 189 ± 8 J/K/mol
- molar heat capacity at constant pressure (288.15 K, x1 = 0.4013): 220 ± 9 J/K/mol
- molar heat capacity at constant pressure (288.15 K, x1 = 0.5043): 265 ± 11 J/K/mol
- molar heat capacity at constant pressure (288.15 K, x1 = 0.6059): 298 ± 13 J/K/mol
- molar heat capacity at constant pressure (288.15 K, x1 = 0.6997): 333 ± 14 J/K/mol
- molar heat capacity at constant pressure (288.15 K, x1 = 0.7864): 347 ± 15 J/K/mol
- molar heat capacity at constant pressure (288.15 K, x1 = 0.8824): 390 ± 17 J/K/mol
- molar heat capacity at constant pressure (288.15 K, x1 = 1): 433 ± 18 J/K/mol
- molar heat capacity at constant pressure (293.15 K, x1 = 0.2887): 191 ± 8 J/K/mol
- molar heat capacity at constant pressure (293.15 K, x1 = 0.4013): 222 ± 9 J/K/mol
- molar heat capacity at constant pressure (293.15 K, x1 = 0.5043): 267 ± 11 J/K/mol
- molar heat capacity at constant pressure (293.15 K, x1 = 0.6059): 300 ± 13 J/K/mol
- molar heat capacity at constant pressure (293.15 K, x1 = 0.6997): 335 ± 14 J/K/mol
- molar heat capacity at constant pressure (293.15 K, x1 = 0.7864): 350 ± 15 J/K/mol
- molar heat capacity at constant pressure (293.15 K, x1 = 0.8824): 392 ± 17 J/K/mol
- molar heat capacity at constant pressure (293.15 K, x1 = 1): 436 ± 19 J/K/mol
- molar heat capacity at constant pressure (298.15 K, x1 = 0.2887): 192 ± 8 J/K/mol
- molar heat capacity at constant pressure (298.15 K, x1 = 0.4013): 224 ± 10 J/K/mol
- molar heat capacity at constant pressure (298.15 K, x1 = 0.5043): 269 ± 11 J/K/mol
- molar heat capacity at constant pressure (298.15 K, x1 = 0.6059): 302 ± 13 J/K/mol
- molar heat capacity at constant pressure (298.15 K, x1 = 0.6997): 337 ± 14 J/K/mol
- molar heat capacity at constant pressure (298.15 K, x1 = 0.7864): 352 ± 15 J/K/mol
- molar heat capacity at constant pressure (298.15 K, x1 = 0.8824): 395 ± 17 J/K/mol
- molar heat capacity at constant pressure (298.15 K, x1 = 1): 439 ± 19 J/K/mol
- molar heat capacity at constant pressure (303.15 K, x1 = 0.2887): 193 ± 8 J/K/mol
- molar heat capacity at constant pressure (303.15 K, x1 = 0.4013): 225 ± 10 J/K/mol
- molar heat capacity at constant pressure (303.15 K, x1 = 0.5043): 271 ± 12 J/K/mol
- molar heat capacity at constant pressure (303.15 K, x1 = 0.6059): 304 ± 13 J/K/mol
- molar heat capacity at constant pressure (303.15 K, x1 = 0.6997): 340 ± 14 J/K/mol
- molar heat capacity at constant pressure (303.15 K, x1 = 0.7864): 354 ± 15 J/K/mol
- molar heat capacity at constant pressure (303.15 K, x1 = 0.8824): 397 ± 17 J/K/mol
- molar heat capacity at constant pressure (303.15 K, x1 = 1): 442 ± 19 J/K/mol
- molar heat capacity at constant pressure (308.15 K, x1 = 0.2887): 195 ± 8 J/K/mol
- molar heat capacity at constant pressure (308.15 K, x1 = 0.4013): 226 ± 10 J/K/mol
- molar heat capacity at constant pressure (308.15 K, x1 = 0.5043): 272 ± 12 J/K/mol
- molar heat capacity at constant pressure (308.15 K, x1 = 0.6059): 306 ± 13 J/K/mol
- molar heat capacity at constant pressure (308.15 K, x1 = 0.6997): 341 ± 14 J/K/mol
- molar heat capacity at constant pressure (308.15 K, x1 = 0.7864): 357 ± 15 J/K/mol
- molar heat capacity at constant pressure (308.15 K, x1 = 0.8824): 400 ± 17 J/K/mol
- molar heat capacity at constant pressure (308.15 K, x1 = 1): 445 ± 19 J/K/mol
- molar heat capacity at constant pressure (313.15 K, x1 = 0.2887): 196 ± 8 J/K/mol
- molar heat capacity at constant pressure (313.15 K, x1 = 0.4013): 228 ± 10 J/K/mol
- molar heat capacity at constant pressure (313.15 K, x1 = 0.5043): 274 ± 12 J/K/mol
- molar heat capacity at constant pressure (313.15 K, x1 = 0.6059): 308 ± 13 J/K/mol
- molar heat capacity at constant pressure (313.15 K, x1 = 0.6997): 343 ± 15 J/K/mol
- molar heat capacity at constant pressure (313.15 K, x1 = 0.7864): 359 ± 15 J/K/mol
- molar heat capacity at constant pressure (313.15 K, x1 = 0.8824): 402 ± 17 J/K/mol
- molar heat capacity at constant pressure (313.15 K, x1 = 1): 447 ± 19 J/K/mol
